According to patent publication US20230365559A1, “NOVEL AMINOPYRIDINES AND THEIR USE IN TREATING CANCER” (priority 2020, published 2023):
“And” between values parts separate entries of the source, which are not always exact repeats. Identical values can stand only once. Like-named read-outs stand apart in the source and are kept apart here.

Experiments:
human DNA-PK = human DNA-PK (Homo sapiens, UniProt P78527); test: Inhibition of DNA-PKcs kinase activity, HotSpot assay (Reaction Biology), [γ-33P]-ATP phosphorylation of peptide substrate; format: biochemical
human PI3Kα (p110α/p85α) = human PI3Kα (p110α/p85α) (Homo sapiens, UniProt P42336); test: Inhibition of PI3Kα kinase activity, ADP-Glo Assay (Reaction Biology); format: biochemical; conditions: 10 μM ATP; mean of two replicates; Table 12; read-out: Inhibition of kinase activity (as IC50) PICK
Sequence of human PI3Kα (p110α/p85α) (P42336 whole entry): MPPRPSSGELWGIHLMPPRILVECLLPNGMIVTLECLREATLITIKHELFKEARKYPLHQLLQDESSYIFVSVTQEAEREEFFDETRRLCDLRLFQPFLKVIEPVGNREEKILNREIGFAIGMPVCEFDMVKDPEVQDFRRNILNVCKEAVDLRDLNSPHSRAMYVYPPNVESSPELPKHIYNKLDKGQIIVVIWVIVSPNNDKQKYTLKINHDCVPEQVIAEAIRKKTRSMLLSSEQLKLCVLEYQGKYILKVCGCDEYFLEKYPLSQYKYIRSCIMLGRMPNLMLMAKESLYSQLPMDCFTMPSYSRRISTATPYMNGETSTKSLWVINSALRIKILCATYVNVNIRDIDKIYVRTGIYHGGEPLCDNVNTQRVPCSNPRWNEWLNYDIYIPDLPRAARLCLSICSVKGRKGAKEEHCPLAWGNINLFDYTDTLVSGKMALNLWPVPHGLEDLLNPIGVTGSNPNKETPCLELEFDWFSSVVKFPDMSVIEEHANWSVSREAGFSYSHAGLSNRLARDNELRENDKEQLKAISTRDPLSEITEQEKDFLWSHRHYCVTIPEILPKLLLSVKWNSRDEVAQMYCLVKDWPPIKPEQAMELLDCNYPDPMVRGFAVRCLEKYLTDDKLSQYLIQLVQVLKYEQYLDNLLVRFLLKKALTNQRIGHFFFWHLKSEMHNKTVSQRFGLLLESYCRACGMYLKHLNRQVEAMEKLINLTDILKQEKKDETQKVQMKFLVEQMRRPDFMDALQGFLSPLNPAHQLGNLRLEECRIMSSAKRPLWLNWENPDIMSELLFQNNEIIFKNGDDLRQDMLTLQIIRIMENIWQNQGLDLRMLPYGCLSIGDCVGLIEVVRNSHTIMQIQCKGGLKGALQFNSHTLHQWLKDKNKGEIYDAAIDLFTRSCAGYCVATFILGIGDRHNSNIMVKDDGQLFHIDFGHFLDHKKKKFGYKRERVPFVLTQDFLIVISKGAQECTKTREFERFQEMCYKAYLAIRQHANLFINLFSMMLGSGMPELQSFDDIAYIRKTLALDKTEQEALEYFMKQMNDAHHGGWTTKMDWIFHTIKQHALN
Sequence of human PI3Kα (p110α/p85α) (P27986 whole entry partner): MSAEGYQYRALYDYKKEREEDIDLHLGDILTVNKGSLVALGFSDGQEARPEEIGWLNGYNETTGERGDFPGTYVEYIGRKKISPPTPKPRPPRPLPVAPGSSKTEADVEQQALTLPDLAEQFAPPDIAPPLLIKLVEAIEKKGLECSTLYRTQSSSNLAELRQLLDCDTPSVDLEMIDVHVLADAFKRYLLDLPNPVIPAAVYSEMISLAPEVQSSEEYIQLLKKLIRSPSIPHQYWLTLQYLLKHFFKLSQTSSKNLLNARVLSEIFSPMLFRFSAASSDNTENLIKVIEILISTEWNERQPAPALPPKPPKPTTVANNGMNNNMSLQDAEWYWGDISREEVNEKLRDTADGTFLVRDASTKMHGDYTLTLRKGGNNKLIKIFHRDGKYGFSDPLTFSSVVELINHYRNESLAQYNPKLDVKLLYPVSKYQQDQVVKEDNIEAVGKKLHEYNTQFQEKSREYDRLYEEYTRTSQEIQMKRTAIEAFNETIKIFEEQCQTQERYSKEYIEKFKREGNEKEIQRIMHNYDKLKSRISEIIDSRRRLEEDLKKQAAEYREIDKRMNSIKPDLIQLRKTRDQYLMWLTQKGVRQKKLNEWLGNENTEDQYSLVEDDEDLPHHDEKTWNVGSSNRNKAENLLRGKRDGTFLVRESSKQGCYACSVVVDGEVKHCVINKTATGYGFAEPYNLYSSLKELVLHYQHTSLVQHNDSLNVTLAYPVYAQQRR

ATM = ATM (Homo sapiens, UniProt Q13315); test: ATM Human PIKK Kinase Enzymatic ELISA/EIA Assay, KinaseProfiler (Eurofins Discovery); format: biochemical; conditions: KinaseProfiler, Km ATP; Table 15; read-out: Inhibition of PIKK kinase activity ATM
Sequence of ATM (Q13315 whole entry): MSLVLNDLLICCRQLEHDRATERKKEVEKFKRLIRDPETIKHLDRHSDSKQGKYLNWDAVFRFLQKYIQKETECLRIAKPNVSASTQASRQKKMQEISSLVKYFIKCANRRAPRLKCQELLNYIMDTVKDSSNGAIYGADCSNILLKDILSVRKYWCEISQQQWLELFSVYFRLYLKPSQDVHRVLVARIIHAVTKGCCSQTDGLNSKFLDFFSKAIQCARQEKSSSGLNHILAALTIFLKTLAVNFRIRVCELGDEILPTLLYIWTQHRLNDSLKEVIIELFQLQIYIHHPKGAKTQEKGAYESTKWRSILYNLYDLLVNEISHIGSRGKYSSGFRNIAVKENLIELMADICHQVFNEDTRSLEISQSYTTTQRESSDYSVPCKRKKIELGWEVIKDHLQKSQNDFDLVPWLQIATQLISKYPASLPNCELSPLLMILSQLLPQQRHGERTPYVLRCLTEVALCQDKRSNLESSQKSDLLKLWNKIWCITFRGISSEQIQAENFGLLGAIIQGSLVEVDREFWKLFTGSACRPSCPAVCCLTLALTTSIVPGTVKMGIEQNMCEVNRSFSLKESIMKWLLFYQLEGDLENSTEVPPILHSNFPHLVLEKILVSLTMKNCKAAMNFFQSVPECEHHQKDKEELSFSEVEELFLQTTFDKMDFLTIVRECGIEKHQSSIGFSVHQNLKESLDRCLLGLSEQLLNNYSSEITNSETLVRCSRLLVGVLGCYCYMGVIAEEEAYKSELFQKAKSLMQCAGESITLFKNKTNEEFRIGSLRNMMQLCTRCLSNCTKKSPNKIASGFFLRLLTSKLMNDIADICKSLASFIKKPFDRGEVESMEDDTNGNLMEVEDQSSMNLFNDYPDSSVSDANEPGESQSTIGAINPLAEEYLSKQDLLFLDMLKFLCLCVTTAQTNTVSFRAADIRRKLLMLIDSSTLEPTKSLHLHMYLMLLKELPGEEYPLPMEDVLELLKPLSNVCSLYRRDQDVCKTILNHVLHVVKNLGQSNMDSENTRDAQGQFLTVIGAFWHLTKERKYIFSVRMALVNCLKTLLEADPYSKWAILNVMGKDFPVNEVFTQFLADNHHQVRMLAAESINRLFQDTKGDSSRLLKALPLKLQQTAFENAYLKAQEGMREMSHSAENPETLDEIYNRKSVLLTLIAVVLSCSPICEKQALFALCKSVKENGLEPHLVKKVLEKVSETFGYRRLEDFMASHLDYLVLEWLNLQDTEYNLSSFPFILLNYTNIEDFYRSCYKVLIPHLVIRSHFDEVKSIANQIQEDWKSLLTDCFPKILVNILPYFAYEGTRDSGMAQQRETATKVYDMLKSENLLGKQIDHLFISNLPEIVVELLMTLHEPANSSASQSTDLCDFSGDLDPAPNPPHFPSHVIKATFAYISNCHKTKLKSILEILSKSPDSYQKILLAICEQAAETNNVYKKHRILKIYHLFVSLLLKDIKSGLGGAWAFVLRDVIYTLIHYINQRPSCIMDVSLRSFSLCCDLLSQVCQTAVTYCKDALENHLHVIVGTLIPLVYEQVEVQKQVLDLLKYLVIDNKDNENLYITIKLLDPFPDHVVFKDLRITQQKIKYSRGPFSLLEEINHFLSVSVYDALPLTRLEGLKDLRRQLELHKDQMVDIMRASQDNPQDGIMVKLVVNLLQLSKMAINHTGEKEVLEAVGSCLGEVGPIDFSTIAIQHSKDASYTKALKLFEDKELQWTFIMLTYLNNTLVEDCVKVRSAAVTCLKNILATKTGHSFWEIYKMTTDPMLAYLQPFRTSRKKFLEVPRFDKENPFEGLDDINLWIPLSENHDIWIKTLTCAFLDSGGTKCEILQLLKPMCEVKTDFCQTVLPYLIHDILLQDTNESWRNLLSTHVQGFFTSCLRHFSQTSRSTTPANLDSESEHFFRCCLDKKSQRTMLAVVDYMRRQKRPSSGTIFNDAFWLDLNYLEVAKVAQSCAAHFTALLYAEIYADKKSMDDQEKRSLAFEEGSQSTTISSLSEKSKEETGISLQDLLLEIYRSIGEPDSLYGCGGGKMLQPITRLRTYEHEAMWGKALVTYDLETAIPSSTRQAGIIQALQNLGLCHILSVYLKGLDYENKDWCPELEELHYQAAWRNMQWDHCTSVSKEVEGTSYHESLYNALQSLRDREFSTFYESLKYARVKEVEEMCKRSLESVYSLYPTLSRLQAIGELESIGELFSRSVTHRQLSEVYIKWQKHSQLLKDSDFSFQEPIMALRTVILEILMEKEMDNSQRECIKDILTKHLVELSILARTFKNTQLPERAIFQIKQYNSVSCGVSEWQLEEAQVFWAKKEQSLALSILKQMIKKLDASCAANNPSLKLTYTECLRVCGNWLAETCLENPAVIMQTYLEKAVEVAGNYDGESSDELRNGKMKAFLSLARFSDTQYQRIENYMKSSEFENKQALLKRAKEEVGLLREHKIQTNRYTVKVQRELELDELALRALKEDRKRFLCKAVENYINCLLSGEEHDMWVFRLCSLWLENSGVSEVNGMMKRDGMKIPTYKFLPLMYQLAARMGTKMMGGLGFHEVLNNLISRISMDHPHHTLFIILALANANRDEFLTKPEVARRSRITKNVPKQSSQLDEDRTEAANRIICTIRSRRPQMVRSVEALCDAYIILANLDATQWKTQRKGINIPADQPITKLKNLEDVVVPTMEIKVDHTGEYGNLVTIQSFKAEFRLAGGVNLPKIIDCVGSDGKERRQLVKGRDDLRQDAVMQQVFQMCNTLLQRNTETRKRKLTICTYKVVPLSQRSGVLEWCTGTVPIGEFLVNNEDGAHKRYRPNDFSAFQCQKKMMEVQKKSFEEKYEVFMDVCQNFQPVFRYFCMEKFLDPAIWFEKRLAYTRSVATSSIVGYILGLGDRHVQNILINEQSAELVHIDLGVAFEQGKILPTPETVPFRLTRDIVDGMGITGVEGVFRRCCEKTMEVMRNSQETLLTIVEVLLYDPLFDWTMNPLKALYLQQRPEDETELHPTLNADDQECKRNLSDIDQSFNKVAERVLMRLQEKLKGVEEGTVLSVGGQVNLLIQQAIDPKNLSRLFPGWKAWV

ATR/ATRIP = ATR/ATRIP (Homo sapiens, UniProt Q13535); test: ATR/ATRIP Human PIKK Kinase Enzymatic Radiometric Assay, KinaseProfiler (Eurofins Discovery); format: biochemical; conditions: Km ATP, Table 15, read-out: Inhibition of PIKK kinase activity ATR
UT-SCC-54C cells [1] = test: Radiosensitisation of UT-SCC-54C HNSCC cells, regrowth (sulforhodamine B) assay, oxic (Table 16); format: cell-based, human; conditions: for IC50: Homo sapiens, read-out: IC50; for S50: compound in combination with 3 Gy of radiation, 50% inhibition of regrowth fraction, UT-SCC-54C; for S50 / radiosensitisation / differential growth inhibition of UT-SCC-54C cells: oxic; for radiosensitisation / differential growth inhibition of UT-SCC-54C cells: 0 or 3 Gy, regrowth assay
HAP1 cells = test: Radiosensitisation of HAP1 wild type cells, regrowth assay; format: cell-based, human; conditions: for radiosensitisation / differential growth inhibition of HAP1 cells: 3 Gy cobalt-60 gamma irradiation relative to radiation-only; for IC50: Homo sapiens, HAP1, read-out: HAP1 wt IC50
HAP1/PRKDC−/− cells = test: Radiosensitisation of DNA-PK null HAP1/PRKDC−/− cells, regrowth assay; format: cell-based, human; conditions: for radiosensitisation / differential growth inhibition of DNA-PK null HAP1 line: 3 Gy, HAP1/PRKDC−/−; for IC50: Homo sapiens, HAP1
Ser2056 of DNA-PKcs = Ser2056 of DNA-PKcs (Homo sapiens, UniProt P78527); test: Inhibition of cellular autophosphorylation at Ser2056 of DNA-PKcs in UT-SCC-54C cells, western immunoblotting; format: cell-based
[2] = biological target: T1, Ser1981 of ataxia-telangiectasia mutated (ATM) (Homo sapiens, UniProt Q13315); test: Inhibition of phosphorylation of Ser1981 of ATM in UT-SCC-54C cells, western immunoblotting; format: cell-based; conditions: oxia, 10 Gy, FIG. 7 (10 μM)
T1 construct: Ser1981 of ataxia-telangiectasia mutated (ATM) in UT-SCC-54C cells
T1 sequence (Q13315 whole entry, change not shown): as the sequence (Q13315 whole entry) above

UT-SCC-54C cells [3] = test: Radiosensitisation of UT-SCC-54C HNSCC cells, clonogenic survival, oxic and anoxic (Table 18); format: cell-based, human; conditions: for Plating efficiency drug/no drug: no radiation; for SER (sensitiser enhancement ratio): UT-SCC-54C, anoxic conditions, FIG. 10; for SER (sensitiser enhancement ratio) / radiosensitisation of UT-SCC-54C cells under oxic conditions: clonogenic survival; for radiosensitisation of UT-SCC-54C cells under oxic conditions: FIG. 9
human mTOR = human mTOR (Homo sapiens, UniProt P42345); test: Inhibition of mTOR kinase activity, HotSpot assay, phosphorylation of 4EPB1
[4] = tested on: UT-SCC-54C tumour xenografts; test: Radiosensitisation of UT-SCC-54C HNSCC tumours, ex vivo clonogenic assay of tumour xenografts; format: in vivo, female NIH-III mice
UT-SCC-54C cells [5] = test: Hypoxia-selective metabolism of prodrugs by UT-SCC-54C cells, LC-MS; conditions: 10 μM, 0-3 h
[6] = 10 μM ATP, 10 μg/ml DNA, mean of two replicates, Table 12, read-out: Inhibition of kinase activity (as IC50) DNA-PK (converted)
[7] = HotSpot assay Reaction Biology Corp., Table 15, read-out: Inhibition of PIKK kinase activity DNA-PK
[8] = Inhibition of PIKK kinase activity mTOR/FRAP (nM), HotSpot assay Reaction Biology Corp., Table 15
[9] = Inhibition of kinase activity (as IC50) mTOR (nM), 10 μM ATP, mean of two replicates, Table 12

Row | SMILES | IC50 (human DNA-PK; [6]) | IC50 (human DNA-PK; [7]) [µM] | IC50 (human PI3Kα (p110α/p85α)) | IC50 (ATM) [µM] | IC50 (ATR/ATRIP) [µM] | IC50 (UT-SCC-54C cells [1]) [µM] | S50 (UT-SCC-54C cells [1]) [µM] | radiosensitisation / differential growth inhibition of UT-SCC-54C cells (UT-SCC-54C cells [1]) | radiosensitisation / differential growth inhibition of HAP1 cells (HAP1 cells) | IC50 (HAP1 cells) [µM] | radiosensitisation / differential growth inhibition of DNA-PK null HAP1 line (HAP1/PRKDC−/− cells) | IC50 (HAP1/PRKDC−/− cells) [µM] | SER (sensitiser enhancement ratio) (UT-SCC-54C cells [3]) | radiosensitisation of UT-SCC-54C cells under oxic conditions (UT-SCC-54C cells [3]) | IC50 (human mTOR; [8]) [nM] | IC50 (human mTOR; [9]) [nM] | other results
1 | Cc1cc(OCc2cnc([N+](=O)[O-])n2C)ccc1Nc1cc2c(cn1)n(C)c(=O)n2C1CCCC1 [Compound 234, 1-Cyclopentyl-3-methyl-6-((2-methyl-4-((1-methyl-2-nitro-1H-imidazol-5-yl)methoxy)phenyl)amino)-1,3-dihydro-2H-imidazo[4,5-c]pyridin-2-one] | 0.766 µM | 0.766 | 0.877 µM | > 100 | > 100 | 10.6 | 10.9 | did not display any differential growth inhibition | did not demonstrate any differential growth inhibition | 9.74 | did not demonstrate any differential growth inhibition | 8.6 | 1.37 | does not | 30000 | 30000 | inhibition of radiation-induced Ser2056 autophosphorylation under anoxia (Ser2056 of DNA-PKcs; anoxic, FIG. 6 (20 μM)): able to inhibit phosphorylation; inhibition of Ser2056 on DNA-PKcs (Ser2056 of DNA-PKcs; oxia, 10 Gy, FIG. 7 (10 μM)): did not inhibit; inhibition of Ser2056 autophosphorylation under oxia (Ser2056 of DNA-PKcs; oxic, 10 Gy, FIG. 5 (20 μM)): little inhibition; inhibition of phosphorylation of Ser1981 on ATM [2]: did not inhibit; D1 (radiation dose for 1% surviving fraction) (UT-SCC-54C cells [3]; 0% O2, compound conc 10 μM): 9.72 Gy; D10 (radiation dose for 10% surviving fraction) (UT-SCC-54C cells [3]; 0% O2, compound conc 10 μM): 6.78 Gy; SER1 (sensitiser enhancement ratio at 1% surviving fraction) (UT-SCC-54C cells [3]; 0% O2, compound conc 10 μM): 1.25; SER10 (sensitiser enhancement ratio at 10% surviving fraction) (UT-SCC-54C cells [3]; 0% O2, compound conc 10 μM): 1.79; Plating efficiency drug/no drug (UT-SCC-54C cells [3]; 0% O2, compound conc 10 μM): 1.01; D1 (radiation dose for 1% surviving fraction) (UT-SCC-54C cells [3]; 20% O2, compound conc 10 μM): 7.43 Gy; D10 (radiation dose for 10% surviving fraction) (UT-SCC-54C cells [3]; 20% O2, compound conc 10 μM): 4.96 Gy; SER1 (sensitiser enhancement ratio at 1% surviving fraction) (UT-SCC-54C cells [3]; 20% O2, compound conc 10 μM): 1.16; SER10 (sensitiser enhancement ratio at 10% surviving fraction) (UT-SCC-54C cells [3]; 20% O2, compound conc 10 μM): 1.13; Plating efficiency drug/no drug (UT-SCC-54C cells [3]; 20% O2, compound conc 10 μM): 1.57
2 | COc1ccc(N(C(=O)OCc2cnc([N+](=O)[O-])n2C)c2cc3c(cn2)n(C)c(=O)n3C2CCOCC2)c(C)c1 [Compound 248, (1-Methyl-2-nitro-1H-imidazol-5-yl)methyl (4-methoxy-2-methylphenyl)(3-methyl-2-oxo-1-(tetrahydro-2H-pyran-4-yl)-2,3-dihydro-1H-imidazo[4,5-c]pyridin-6-yl)carbamate] | 0.0185 µM and 0.14 µM | 0.0185 | 107 µM and > 100 µM | > 100 | > 100 | > 10 | >10 | did not display any differential growth inhibition | did not demonstrate any differential growth inhibition | > 10 | did not demonstrate any differential growth inhibition | > 10 | 1.82 | does not | ≥ 10000 | > 100000 | D1 (radiation dose for 1% surviving fraction) (UT-SCC-54C cells [3]; 0% O2, compound conc 1 μM): 13.8 Gy; D10 (radiation dose for 10% surviving fraction) (UT-SCC-54C cells [3]; 0% O2, compound conc 1 μM): 8.57 Gy; SER1 (sensitiser enhancement ratio at 1% surviving fraction) (UT-SCC-54C cells [3]; 0% O2, compound conc 1 μM): 1.71; SER10 (sensitiser enhancement ratio at 10% surviving fraction) (UT-SCC-54C cells [3]; 0% O2, compound conc 1 μM): 1.73; Plating efficiency drug/no drug (UT-SCC-54C cells [3]; 0% O2, compound conc 1 μM): 1.13; D1 (radiation dose for 1% surviving fraction) (UT-SCC-54C cells [3]; 20% O2, compound conc 1 μM): 9.34 Gy; D10 (radiation dose for 10% surviving fraction) (UT-SCC-54C cells [3]; 20% O2, compound conc 1 μM): 5.61 Gy; SER1 (sensitiser enhancement ratio at 1% surviving fraction) (UT-SCC-54C cells [3]; 20% O2, compound conc 1 μM): 1.04; SER10 (sensitiser enhancement ratio at 10% surviving fraction) (UT-SCC-54C cells [3]; 20% O2, compound conc 1 μM): 1.12; Plating efficiency drug/no drug (UT-SCC-54C cells [3]; 20% O2, compound conc 1 μM): 1.21; reduction in clonogens/gram of tumour, compound with radiation compared to radiation alone ([4]; IP 50 mg/kg 15 min before and 6 h after 13 Gy whole-body irradiation): smaller, but significant (p=0.018) effect; reduction in clonogens/gram of tumour tissue, compound alone ([4]; IP 2 x 50 mg/kg, no radiation, compared to DMSO control): no reduction; metabolism of prodrug by UT-SCC-54C cells under anoxic conditions (release of 121) (UT-SCC-54C cells [5]; anoxic): selectively metabolised; metabolism of prodrug by UT-SCC-54C cells under oxic conditions (UT-SCC-54C cells [5]; oxic): not under oxic conditions; IC50 (human mTOR; read-out: Inhibition of kinase activity (as IC50) mTOR, 10 μM ATP, mean of two replicates, Table 12): > 100000 nM
